We go through one molecule from US20240318142A1, “METHOD FOR PRODUCING RENAL INTERSTITIAL PROGENITOR CELLS, ERYTHROPOIETIN-PRODUCING CELLS, AND METHOD FOR PRODUCING RENIN-PRODUCING CELLS” (KYOTO UNIVERSITY, priority 2021, published 2024).

Structures are written as SMILES.

Experiment [1] has as its system hiPSC-derived IPCs. Briefly: qRT-PCR of EPO after further differentiation induction from IPCs (renal EPO-producing cells). Type of experiment: cell-based, human. As to conditions: combination of SB431542 and SAG (500 nM); 5% O2, FG-4592 and RA present; FIG. 9. The method, then: (§1) FIG. 9 is a diagram illustrating results of qRT-PCR analysis of EPO and renin carried out on Days 11 to 14, that is, after obtaining renal interstitial progenitor cells, for comparison of the effects of combinations of candidate differentiation induction factors for renal EPO-producing cells or renin-producing cells. The SAG concentration was 500 nM, and the concentrations of SB and CHIR are expressed in the unit of μM.
(§2) FIG. 10 is a diagram illustrating results of qRT-PCR analysis of EPO and renin on Days 11 to 14, that is, after obtaining renal interstitial progenitor cells, for comparison of the effects of combinations of various candidate differentiation induction factors. The SAG concentration was 500 nM; the concentrations of SB and A83 are expressed in the unit of μM; LDN is expressed in the unit of nM; and TGFβ1, BMP7, and activin (ACT) are expressed in the unit of ng/mL.
FIG. 15 is a diagram illustrating results of qRT-PCR analysis of EPO carried out on Days 11 to 14, that is, after obtaining renal interstitial progenitor cells, for comparison of the effects of various Sonic Hedgehog (SHH) signal modulators under induction conditions using CHIR99021, RA, and A83-01. So, Vi, Pu, Sa, and Ga represent sonidegib, vismodegib, purmophamine, SANT-1, and GANT61, respectively, and their concentrations are expressed in the unit of μM. The concentration of SAG was 500 nM, and the concentration of SHH was 100 ng/mL.
(§3) First, using the IPCs on Day 11, culture was performed under 5% O2 hypoxic conditions in the presence of FG-4592 (N-[(4-hydroxy-1-methyl-7-phenoxy-3-isoquinolinyl)carbonyl]-glycine) and RA with addition of various factors. By measuring the expression of EPO and renin, screening for induction factors for renin-producing cells and renal EPO-producing cells was carried out.
Subsequently, the effects of various SHH signal modulators in a system for differentiation induction from IPCs to EPO-producing cells were investigated (FIG. 15). Several SMO antagonists (sonidegib, vismodegib, and SANT-1) and agonists (SAG and purmophamine), a GLI1 inhibitor (GANT61), and human SHH protein were tested.

For experiment [2], the system named is hiPSC-derived IPCs. The experiment can be described thus: qRT-PCR of renin and mesangial/JG cell markers after further differentiation induction from IPCs (renin-producing cells). As to conditions: combination of CHIR99021 and SB431542, absence of SAG; 5% O2, FG-4592 and RA present; FIG. 9. Type of experiment: cell-based, human. The method, then:
as §1, §2
FIG. 11 is a diagram illustrating results of qRT-PCR analysis of renin on Days 11 to 14, that is, after obtaining renal interstitial progenitor cells, for comparison of the effects of various factors. In the presence of CHIR99021, RA, and FG-4592 (CFR), the effects of BMP4, BMP5, and BMP7 (10 ng/mL or 100 ng/mL) were investigated under conditions with or without treatment by SB431542 (1 μM). SB is expressed in the unit of […], and TGFβ1 and ACT are expressed in the unit of ng/mL.
FIG. 12 is a diagram illustrating results of qRT-PCR analysis of marker expression for the mesangial cell lineage (GATA3, renin, and GJA5) and IPCs (FOXD1) at Hour 0 and Hour 96 after treatment with CFR+BMP7+SB. iPSC represents the control.
FIG. 13 is a diagram illustrating results of qRT-PCR analysis of cells that were subjected to treatment under hypoxic (CFR+B7+SB in 5% O2) or normal oxygen (CFR+B7+SB minus FG-4592 in 20% O2) conditions on Days 11 to 15, that is, after obtaining renal interstitial progenitor cells, which analysis was carried out for markers for JG (renin and GJA4) and mesangial cells (EBF1, GJA5, ITGA8, and GATA3). * indicates p<0.05; ** indicates p<0.01; and NS indicates “no significant difference” (Student's t-test).
FIG. 14 is a diagram illustrating results of qRT-PCR analysis of cells that were subjected to treatment with VEGF (100 ng/mL) or axitinib (3 μM) and also to treatment under hypoxic conditions (CFR+B7+SB in 5% O2) or normal conditions (CFR+B7+SB minus FG-4592 in 20% O2) on Days 11 to 15, that is, after obtaining renal interstitial progenitor cells, which analysis was carried out for markers for JG (renin and GJA4), mesangial cells (EBF1, GJA5, ITGA8, and GATA3), and VEGFA.
as §3
(In general: Real-time PCR tracks product formation cycle by cycle.)

Regarding `NC(=O)c1ccc(-c2nc(-c3ccc4c(c3)OCO4)c(-c3ccccn3)[nH]2)cc1` [SB431542], the “expression of EPO” value with hiPSC-derived IPCs [1] was “increase the expression of EPO”. The expression of renin entry with hiPSC-derived IPCs [2] was “increase the expression of renin”.
